Experimental data taken from patent publication US10953003B2, “Methods for treating cancer” (X4 Pharmaceuticals, Inc., priority 2015, dated 2021).

How the values were obtained:
[1] = tested on: renal cell carcinoma (RCC) xenografts; conditions: cited from earlier work
786-0 RCC xenografts = assay: Murine 786-0 RCC xenograft model; format: in vivo, mice; conditions: for effects on tumor growth / MDSC infiltration of tumors: 786-0 xenografts; for effects on tumor growth: nude/beige mice, tumors measured on day 7, FIG. 1A; for MDSC infiltration of tumors: CD11b+ GR-1+ cells, FIGS. 5A, 5C
Procedure: (§1) With each of the human cell lines, 1×10^7 tumor cells were implanted subcutaneously in the flanks of 36 nude/beige mice and tumors allowed to grow to roughly 7 mm in diameter. […] Therefore, on day 7, the mice were sacrificed and the tumors were measured and immediately excised and divided into three parts. One part of each tumor was paraffin-embedded for dual color immunofluorescence. Another part was mechanically disaggregated and treated with collagenase/DNAse to generate a single cell suspension for flow cytometry. The third part was frozen for future pharmacokinetic analysis. Microscope slides were made from the paraffin-embedded tumor tissue, which were stained with antibodies against CD11b, Gr-1, and FAP. The number of infiltrating CD11b+/Gr-1+ MDSC and FAP+ fibroblasts present in the tumor tissue was then determined by immunofluorescence (IF) as previously described (1).
(§2) The disaggregated tumor specimens were analyzed for CD11b+/Gr-1+ MDSC and FAP+ fibroblasts by flow cytometry. The fraction of both populations expressing CXCR4 were also determined. At the time the mice were sacrificed, the spleens were removed and cut in half. One part was disaggregated into single cell suspensions and analyzed by flow cytometry as above for MDSC. The second half was frozen for future analyses, such as PK analysis. Finally, a bone marrow (BM) sample was generated by extruding marrow from an excised femur with a syringe filled with saline and analyzed by flow cytometry for MDSC.

[2] = Phase 1 and 2a trials; cited from earlier work
A375 cells = A375 cells with or without constitutively active Stat3 construct, treated 24 h; format: cell-based; conditions: A375 cells +/- constitutively active Stat3, 24 h, normoxic or hypoxic; FIG. 15
From the text: FIG. 15A illustrates Western blot results from lysates of A375 cells or A375 cells transfected with a constitutively active Stat3 construct. […] Without wishing to be bound by theory, it is believed that Stat3 is important in promoting CXCL-12 mediated invasion of tumors.

786 cells = 786 cells treated in vitro for 24 hours, normoxic and hypoxic (1% O2); format: cell-based, human; conditions: 786 hypoxic cells in vitro
From the text: FIG. 14B illustrates mir-30a and mir-30c microRNA and (FIG. 14C) total HIF-2α, RNA expression from the same cells from FIG. 14A.

A498 RCC xenografts = assay: Murine A498 RCC xenograft model; format: in vivo, mice; conditions: for MDSC infiltration of tumors: CD11b+ GR-1+ cells, FIGS. 5B, 5D; for effects on tumor growth: nude/beige mice, tumors measured on day 7, FIG. 1B
Procedure: as §1, §2

[3] = oral axitinib; see current product label; cited from earlier work
[4] = over the range pH 1.1 to pH 7.8; cited from earlier work
[5] = cited from earlier work

Row | Compound | development of sunitinib resistance ([1]; MI-319 given concurrently with sunitinib) | infiltration of RCC xenografts with CD11b+/Gr-1+ MDSC ([1]; earlier work by some of the inventors, MI-319 given concurrently with sunitinib) | HIF-2 expression ([1]; earlier work of the inventors) | effects on tumor growth (786-0 RCC xenografts) | MDSC infiltration of tumors (786-0 RCC xenografts) | level of HIF-2α (786-0 RCC xenografts; 786 xenograft tumors, Western blots, 8 days of treatment, FIGS. 11, 13) | pharmacodynamic activity: circulating white blood cells (WBCs) [2] | volume of distribution (VL) [2] | suppression of HIF-2α and induction of mir-30a and 30c (A375 cells) | mir-30a and mir-30c microRNA (786 cells; FIG. 14B) | HIF-2α (786 cells; FIGS. 14A, 14C) | MDSC infiltration of tumors (A498 RCC xenografts) | effects on tumor growth (A498 RCC xenografts) | absorption, effect of food [3] | solubility in aqueous media [4] | micro-RNAs mir-30a and mir-30c expression (786-0 RCC xenografts; 786-0 xenograft tumor, after 8 days of treatment, FIG. 12) | pKa [5]
1 | MI-319 | prevented | prevented | suppresses | – | – | – | – | – | – | – | – | – | – | – | – | – | –
2 | NCCCCN(Cc1nc2ccccc2[nH]1)[C@H]1CCCc2cccnc21 [X4P-001] | – | – | – | modest | significantly less MDSC infiltration | reduction in the level of HIF-2α relative to that caused by axitinib treatment | dose- and concentration-related changes | high | dependent on Stat3 expression | mir-30a and mir-30c induction | HIF-2α reduction | significantly less MDSC infiltration | modest | – | – | – | –
3 | CNC(=O)c1ccccc1Sc1ccc2c(/C=C/c3ccccn3)n[nH]c2c1 [axitinib, N-methyl-2-[3((E)-2-pyridin-2-yl-vinyl)-1H-indazol-6-ylsulfanyl]-benzamide] | – | – | – | no | extensive MDSC infiltration | – | – | – | – | – | – | extensive MDSC infiltration | no | not altered by food | > 0.2 µg/mL | suppressed | 4.8
